The nature of this series: solubility. Type of series: physicochemical.

Where a name gives a salt, the structure may show the parent alone.

On to `CO[C@@]1(NC(=O)CCC[C@@H](N)C(=O)O)C(=O)N2C(C(=O)O)=C(COC(N)=O)CS[C@@H]21` [Cephamycin C, reference compound], for which, under “water-immiscible organic solvents”, the “solubility in water-immiscible organic solvents” value is “virtually insoluble”.

Regarding `CC=CC=CC1OC(O)(C(CC)C(=O)NCC=CC=C(C)C(OC)C(C)C2OC(C=CC=CC=C(C)C(=O)c3c(O)ccn(C)c3=O)C(O)C2O)C(O)C(OC2OC(C)C(OC3OC(C)C(OC)C(O)C3OC)C(OC)C2O)C1(C)C` (stereo not drawn) [FR-02A as the ammonium salt], the “solubility in alcohol and chloroform” value (ammonium salt, alcohol and chloroform) was “soluble”. For the same compound, the solubility in water result (ammonium salt, water at pH 7.0 or higher) is on record as “moderately soluble”.

For the origin of these results see patent US4065356A, “Production of antibiotic FR-02A (efrotomycin) by streptomyces lactamdurans” (priority 1977, dated 1977).
